Measurements reported in patent publication US6927226B2, “Antidepressant azaheterocyclymethyl derivatives of 7,8-dihydro-3H-6,9-dioxa-1,3-diazacyclopenta[a]naphthalene” (Wyeth, priority 2001, dated 2005).
Where a name gives a salt, the structure may show the parent alone. Read-outs that look alike come from different tables or passages of the source.

Experiments:
[1] = target: T1, serotonin transporter (Rattus norvegicus, UniProt P31652); assay: 3H-paroxetine displacement, affinity for the serotonin transporter; assay type: binding
T1 construct: displace ^3H-paroxetine from male rat frontal cortical membranes; from tissue; host or cells: male rat frontal cortex membranes

[2] = target: T2, human 5-HT1A receptors (Homo sapiens, UniProt P08908); assay: [3H] 8-OHDPAT displacement from the 5-HT1A receptor (transfected CHO cells); assay type: binding
T2 construct: expressed in transfected cells; host or cells: CHO cells, stably transfected
T2 sequence (P08908 1-422): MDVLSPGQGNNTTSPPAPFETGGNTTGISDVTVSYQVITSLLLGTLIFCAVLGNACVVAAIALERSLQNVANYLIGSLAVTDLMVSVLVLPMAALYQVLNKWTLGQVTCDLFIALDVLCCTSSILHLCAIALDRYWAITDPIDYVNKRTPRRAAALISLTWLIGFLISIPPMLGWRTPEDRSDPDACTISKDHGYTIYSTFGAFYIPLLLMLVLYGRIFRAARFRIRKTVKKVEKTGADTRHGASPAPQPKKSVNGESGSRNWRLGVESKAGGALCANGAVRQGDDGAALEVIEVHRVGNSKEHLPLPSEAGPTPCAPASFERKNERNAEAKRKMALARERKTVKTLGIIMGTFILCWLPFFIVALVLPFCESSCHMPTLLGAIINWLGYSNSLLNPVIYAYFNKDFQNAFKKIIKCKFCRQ
From the text: High affinity for the serotonin 5-HT1A receptor was established by testing the claimed compound's ability to displace [^3H] 8-OHDPAT (dipropylaminotetralin) from the 5-HT1A serotonin receptor following a modification of the procedure of Hall et al., J. Neurochem. 44, 1685 (1985) which utilizes CHO cells stably transfected with human 5-HT1A receptors.

[3] = target: T3, cloned human 5-HT1A receptors (Homo sapiens, UniProt P08908); assay: 35S-GTPγS binding assay, antagonist activity at 5-HT1A receptors; assay type: biochemical; conditions: reversal of the effects of the standard agonist 8-OHDPAT; for IC50: membranes with cloned human 5-HT1A receptors, read-out: 5-HT1A Function IC50
T3 construct: expressed in transfected cells
T3 sequence (P08908 1-422): T2 sequence (P08908 1-422)
Experimental: Antagonist activity at 5-HT1A receptors was established by using a ^35S-GTPγS binding assay similar to that used by Lazareno and Birdsall (Br. J. Pharmacol. 109: 1120, 1993), in which the test compound's ability to affect the binding of ^35S-GTPγS to membranes containing cloned human 5-HT1A receptors was determined. Agonists produce an increase in binding whereas antagonists produce no increase but rather reverse the effects of the standard agonist 8-OHDPAT. The test compound's maximum inhibitory effect is represented as the Imax, while its potency is defined by the IC50.

[4] = displacement of 3H-paroxetine, male rat frontal cortical membranes, read-out: 5-HT Transporter Affinity KI
[5] = displacement of [3H] 8-OHDPAT, CHO cells stably transfected with human 5-HT1A receptors, read-out: 5-HT1A Receptor Affinity KI

T1 sequence (P31652 whole entry): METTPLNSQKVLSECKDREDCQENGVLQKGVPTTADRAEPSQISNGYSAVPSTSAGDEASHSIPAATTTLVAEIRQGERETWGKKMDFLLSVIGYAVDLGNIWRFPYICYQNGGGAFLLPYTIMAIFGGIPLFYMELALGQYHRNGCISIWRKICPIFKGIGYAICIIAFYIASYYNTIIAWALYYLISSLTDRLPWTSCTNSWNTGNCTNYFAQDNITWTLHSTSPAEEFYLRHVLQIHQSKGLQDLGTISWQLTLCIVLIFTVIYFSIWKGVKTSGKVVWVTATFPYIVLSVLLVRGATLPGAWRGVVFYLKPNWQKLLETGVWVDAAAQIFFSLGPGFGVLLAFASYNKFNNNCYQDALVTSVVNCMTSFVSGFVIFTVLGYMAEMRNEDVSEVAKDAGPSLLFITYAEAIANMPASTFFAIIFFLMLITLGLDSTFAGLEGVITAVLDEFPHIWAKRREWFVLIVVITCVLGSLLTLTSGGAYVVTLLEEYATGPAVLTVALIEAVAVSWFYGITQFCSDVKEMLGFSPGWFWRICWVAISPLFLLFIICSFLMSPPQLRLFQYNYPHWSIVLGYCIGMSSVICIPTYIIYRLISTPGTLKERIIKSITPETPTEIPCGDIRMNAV

With `Fc1ccc2c(C3=CCN(CC4COc5ccc6[nH]c(C(F)(F)F)nc6c5O4)CC3)c[nH]c2c1` (stereo not drawn) (as salt: fumarate) (hydrate or solvate) [Example 3, 8-[4-(6-Fluoro-1H-indol-3-yl)-3,6-dihydro-2H-pyridin-1-ylmethyl]-2-trifluoromethyl-7,8-dihydro-3H-6,9-dioxa-1,3-diaza-cyclopenta[a]naphthalene] the melting point was 215 to 220 °C.
In the case of `Cc1nc2c3c(ccc2[nH]1)OCC(CN1CC=C(c2c[nH]c4ccccc24)CC1)O3` (stereo not drawn) (as salt: fumarate) (hydrate or solvate) [Example 4, 8-[4-(1H-Indol-3-yl)-3,6-dihydro-2H-pyridin-1-ylmethyl]-2-methyl-7,8-dihydro-3H-6,9-dioxa-1,3-diaza-cyclopenta[a]naphthalene], the melting point is reported as 219 to 222 °C.
Compound `Fc1ccc2[nH]cc(C3=CCN(CC4COc5ccc6[nH]c(C(F)(F)F)nc6c5O4)CC3)c2c1` (stereo not drawn) (as salt: fumarate) [Example 1, 8-[4-(5-Fluoro-1H-indol-3-yl)-3,6-dihydro-2H-pyridin-1-ylmethyl]-2-trifluoromethyl-7,8-dihydro-3H-6,9-dioxa-1,3-diaza-cyclopenta[a]naphthalene] has a melting point of 236 to 238 °C.
In the case of `FC(F)(F)c1nc2c3c(ccc2[nH]1)OCC(CN1CC=C(c2c[nH]c4ccccc24)CC1)O3` (stereo not drawn) (as salt: fumarate) [Example 2, 8-[4-(1H-Indol-3-yl)-3,6-dihydro-2H-pyridin-1-ylmethyl]-2-trifluoromethyl-7,8-dihydro-3H-6,9-dioxa-1,3-diaza-cyclopenta[a]naphthalene], the melting point is reported as 231 to 233 °C.
With `CCc1nc2c3c(ccc2[nH]1)OCC(CN1CC=C(c2c[nH]c4ccccc24)CC1)O3` (stereo not drawn) (as salt: fumarate) [Example 6, 8-[4-(1H-Indol-3-yl)-3,6-dihydro-2H-pyridin-1-ylmethyl]-2-ethyl-7,8-dihydro-3H-6,9-dioxa-1,3-diaza-cyclopenta[a]naphthalene] the melting point was 231 to 232 °C.
With `Fc1cccc2c(C3=CCN(CC4COc5ccc6[nH]c(C(F)(F)F)nc6c5O4)CC3)c[nH]c12` (stereo not drawn) (as salt: fumarate) [Example 7, 8-[4-(7-Fluoro-1H-indol-3-yl)-3,6-dihydro-2H-pyridin-1-ylmethyl]-2-trifluoromethyl-7,8-dihydro-3H-6,9-dioxa-1,3-diaza-cyclopenta[a]naphthalene] the melting point was 239 to 240 °C.
In the case of `FC(F)(F)C(F)(F)c1nc2c3c(ccc2[nH]1)OCC(CN1CC=C(c2c[nH]c4ccccc24)CC1)O3` (stereo not drawn) (as salt: fumarate) [Example 8, 8-[4-(1H-Indol-3-yl)-3,6-dihydro-2H-pyridin-1-ylmethyl]-2-pentafluoroethyl-7,8-dihydro-3H-6,9-dioxa-1,3-diaza-cyclopenta[a]naphthalene], the melting point is reported as 238 to 239 °C.
For `Fc1ccc2[nH]cc(C3=CCN(CC4COc5ccc6[nH]c(C(F)(F)F)nc6c5O4)CC3)c2c1` (stereo not drawn) [Example 1, 8-[4-(5-Fluoro-1H-indol-3-yl)-3,6-dihydro-2H-pyridin-1-ylmethyl]-2-trifluoromethyl-7,8-dihydro-3H-6,9-dioxa-1,3-diaza-cyclopenta[a]naphthalene], the Ki [1] was 1.04 nM, the Ki [2] was 3.07 nM and the “5-HT1A Function (Imax), maximum inhibitory effect” value [3] was “(100)”. The IC50 [3] was 93.5 nM.
For `FC(F)(F)c1nc2c3c(ccc2[nH]1)OCC(CN1CC=C(c2c[nH]c4ccccc24)CC1)O3` (stereo not drawn) [Example 2, 8-[4-(1H-Indol-3-yl)-3,6-dihydro-2H-pyridin-1-ylmethyl]-2-trifluoromethyl-7,8-dihydro-3H-6,9-dioxa-1,3-diaza-cyclopenta[a]naphthalene], the Ki [1] was 1.05 nM, the Ki [2] was 1.76 nM and the “5-HT1A Function (Imax), maximum inhibitory effect” value [3] was “(82.5)”. For the same compound, the IC50 [3] was 29 nM.
In the case of `Fc1ccc2c(C3=CCN(CC4COc5ccc6[nH]c(C(F)(F)F)nc6c5O4)CC3)c[nH]c2c1` (stereo not drawn) [Example 3, 8-[4-(6-Fluoro-1H-indol-3-yl)-3,6-dihydro-2H-pyridin-1-ylmethyl]-2-trifluoromethyl-7,8-dihydro-3H-6,9-dioxa-1,3-diaza-cyclopenta[a]naphthalene], the Ki [1] is reported as 1.12 nM, the Ki [2] is reported as 2.67 nM and the “5-HT1A Function (Imax), maximum inhibitory effect” value [3] is reported as “(66.5)”. It also gave an IC50 [3] of 22 nM.
For `Cc1nc2c3c(ccc2[nH]1)OCC(CN1CC=C(c2c[nH]c4ccccc24)CC1)O3` (stereo not drawn) [Example 4, 8-[4-(1H-Indol-3-yl)-3,6-dihydro-2H-pyridin-1-ylmethyl]-2-methyl-7,8-dihydro-3H-6,9-dioxa-1,3-diaza-cyclopenta[a]naphthalene], the Ki [1] was 0.41 nM, the Ki [2] was 1.58 nM and the “5-HT1A Function (Imax), maximum inhibitory effect” value [3] was “(100)”. The IC50 [3] was 10 nM.
With `Cc1nc2ccc3c(c2n1C)OC(CN1CC=C(c2c[nH]c4ccccc24)CC1)CO3` (stereo not drawn) [Example 5, 8-[4-(1H-Indol-3-yl)-3,6-dihydro-2H-pyridin-1-ylmethyl]-1,2-dimethyl-7,8-dihydro-3H-6,9-dioxa-1,3-diaza-cyclopenta[a]naphthalene] the Ki [1, 4] was 2 nM, the Ki [2, 5] was 52 nM and the “5-HT1A Function (Imax), maximum inhibitory effect” value [3] was “(100)”. For the same compound, the IC50 [3] was 6520 nM.
For `CCc1nc2c3c(ccc2[nH]1)OCC(CN1CC=C(c2c[nH]c4ccccc24)CC1)O3` (stereo not drawn) [Example 6, 8-[4-(1H-Indol-3-yl)-3,6-dihydro-2H-pyridin-1-ylmethyl]-2-ethyl-7,8-dihydro-3H-6,9-dioxa-1,3-diaza-cyclopenta[a]naphthalene], the Ki [1] was 0.42 nM, the Ki [2] was 1.34 nM and the “5-HT1A Function (Imax), maximum inhibitory effect” value [3] was “(35.0)”. It also gave an IC50 [3] of 36 nM.
For `Fc1cccc2c(C3=CCN(CC4COc5ccc6[nH]c(C(F)(F)F)nc6c5O4)CC3)c[nH]c12` (stereo not drawn) [Example 7, 8-[4-(7-Fluoro-1H-indol-3-yl)-3,6-dihydro-2H-pyridin-1-ylmethyl]-2-trifluoromethyl-7,8-dihydro-3H-6,9-dioxa-1,3-diaza-cyclopenta[a]naphthalene], the Ki [1] was 0.69 nM, the Ki [2] was 0.81 nM and the “5-HT1A Function (Imax), maximum inhibitory effect” value [3] was “(89.1)”. For the same compound, the IC50 [3] was 27.4 nM.
For `FC(F)(F)C(F)(F)c1nc2c3c(ccc2[nH]1)OCC(CN1CC=C(c2c[nH]c4ccccc24)CC1)O3` (stereo not drawn) [Example 8, 8-[4-(1H-Indol-3-yl)-3,6-dihydro-2H-pyridin-1-ylmethyl]-2-pentafluoroethyl-7,8-dihydro-3H-6,9-dioxa-1,3-diaza-cyclopenta[a]naphthalene], the Ki [1, 4] was 1.25 nM, the Ki [2, 5] was 1.88 nM and the “5-HT1A Function (Imax), maximum inhibitory effect” value [3] was “(91.1)”. It also gave an IC50 [3] of 43.6 nM.
